Experimental data taken from patent US12162858B2, “Quinoline derivatives as inhibitors of AXL/MER RTK and CSF1R” (QURIENT CO., LTD., priority 2018, dated 2024).

target: CSF1R (Homo sapiens, UniProt P07333); assay: Cellular CSF1R inhibition ELISA (p-CSF1R, M-CSF-induced) using THP-1 cells; type: cell-based; design: THP-1 cells act as a model for human monocytes; endogenous in cells; host or cells: THP-1
Text: The normal proto-oncogene c-fms encodes the macrophage growth factor (M-CSF, also known as CSF1) receptor involved in growth, survival, and differentiation along the monocyte-macrophage lineage. THP-1 cells act as a model for human monocytes. It confirms that an increased phosphorylation of CSF1R (p-CSF1R) can be observed, when induced by CSF1R ligand, CSF1.
The THP-1 cells should be maintained from 5×10^5 to 1×10^6 cells/ml in the cell culture flask. After centrifugation, the supernatant is aspirated. The cell pellet is re-suspended with pre-warmed growth medium (RPMI1640, 10% FBS, 0.05 mM 2-Mercaptoethanol) and cells are separated by pipetting 6 times up and down with a 10 ml serological pipette. The cell suspension has to be diluted to a final concentration of 2×10^5 cells per 80 μl with pre-warmed growth medium. 80 μl of cell suspension is added to all wells of plates. Cell-plates are incubated at 37° C./5% CO2. Dissolve compound in 100% DMSO to make 10 mM stock solutions (Aliquots stored in the Nitrogen Cabinet). Dilute 10 mM compounds solutions for 2-fold in 100% DMSO to get 5 mM solutions (10 μl+10 μl DMSO), and then make a 3-fold serial dilution (10 μl+20 μl DMSO) for 10 doses. For reference compounds: Dilute 10 mM compounds solutions for 20-fold in 100% DMSO to get 0.5 mM solutions (2 μl+38 μl DMSO), and then make a 3-fold serial dilution (10 μl+20 μl DMSO) for 10 doses. Transfer 2 μl diluted compounds to 198 μl medium to get solution of 50 μM concentration at top point for compounds and 5 μM for reference compounds. Then transfer 20 μl cpd solution into assay plate (Duplicate wells). The plate is incubated at 37° C./5% CO2 for 24 h. The final concentration of DMSO in all wells is […]. Reconstitute human M-CSF at 50 μg/ml in sterile water. (Aliquots stored in −80° C.). 1:1000 dilute human M-CSF by fresh medium to 50 ng/ml. After 24 h compounds treatment, transfer 25 μl diluted human M-CSF (50 ng/ml) to cell plate according to the plate map. The final concentration of human M-CSF in all wells is 10 ng/ml.
The plates is incubated at 37° C./5% CO2 for 5 min. In the beginning the appropriate amount of lysis buffer complete (100 μL/well) is prepared and stored on ice. After 5 min human M-CSF stimulation, wash plates once with 300 μL ice cold PBS. Then 100 μl lysis buffer is added to each well. The plate is shacked for 40 min at 4° C. Plates can now be stored at −20° C. After equilibrate the micro-well strips at room temperature, break off the required number of micro-wells. Place the micro-wells in the strip holder. Unused micro-wells must be resealed and stored at 4° C. immediately. Add 90 μl of cell lysate to the appropriate well. Seal with tape and press firmly onto top of micro-wells. Incubate the plate for 2 h at 37° C. Gently remove the tape and wash wells 4 times with 1× Wash Buffer, 200 μl each time for each well. Add 100 μl of reconstituted Detection Antibody (green color) to each well. Seal with tape and incubate the plate at 37° C. for 1 h. Repeat wash procedure. Add 100 μl of reconstituted HRP-Linked secondary antibody to each well. Seal with tape and incubate the plate for 30 min at 37° C. Repeat wash procedure. Add 100 μl of TMB Substrate to each well. Seal with tape and incubate the plate for 10 min at 37° C. or 30 min at 25° C. Calculations and Formulas: The following calculations and formulas are used for data analysis using XL Fit software: The curve fitting was made using the Sigmoidal Dose-Response Model (Fit model, 205).

Chain of CSF1R (P07333 20-972): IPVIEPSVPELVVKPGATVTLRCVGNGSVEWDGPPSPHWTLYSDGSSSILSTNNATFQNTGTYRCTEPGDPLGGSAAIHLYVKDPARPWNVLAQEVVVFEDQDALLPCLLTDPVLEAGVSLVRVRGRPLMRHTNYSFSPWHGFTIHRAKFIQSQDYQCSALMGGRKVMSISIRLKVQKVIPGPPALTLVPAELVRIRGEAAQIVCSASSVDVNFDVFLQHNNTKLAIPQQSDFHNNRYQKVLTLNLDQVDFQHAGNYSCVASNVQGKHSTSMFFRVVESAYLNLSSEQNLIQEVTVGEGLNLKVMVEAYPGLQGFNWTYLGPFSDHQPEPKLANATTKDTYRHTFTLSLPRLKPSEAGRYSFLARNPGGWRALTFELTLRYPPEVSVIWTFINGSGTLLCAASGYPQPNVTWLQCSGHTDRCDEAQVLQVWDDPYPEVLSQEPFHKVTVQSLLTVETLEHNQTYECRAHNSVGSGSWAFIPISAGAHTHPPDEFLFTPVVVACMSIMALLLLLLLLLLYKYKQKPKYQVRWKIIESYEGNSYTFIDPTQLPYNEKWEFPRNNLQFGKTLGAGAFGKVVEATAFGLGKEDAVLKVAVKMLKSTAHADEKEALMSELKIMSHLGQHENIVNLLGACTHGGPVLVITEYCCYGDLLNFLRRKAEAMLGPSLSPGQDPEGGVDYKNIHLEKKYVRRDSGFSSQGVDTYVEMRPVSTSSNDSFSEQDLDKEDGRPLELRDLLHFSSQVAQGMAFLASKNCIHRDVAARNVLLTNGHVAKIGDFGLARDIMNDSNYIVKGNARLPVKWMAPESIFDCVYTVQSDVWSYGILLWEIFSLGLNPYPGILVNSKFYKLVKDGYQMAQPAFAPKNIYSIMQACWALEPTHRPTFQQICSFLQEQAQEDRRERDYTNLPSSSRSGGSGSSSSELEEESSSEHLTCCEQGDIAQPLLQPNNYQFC

Compound | IC50
CNCCn1cc(OCC(F)(F)F)c(C(=O)Nc2ccc(Oc3ccnc4cc(OC)c(OC)cc34)cc2F)n1 [Compound 154] | ≥ 1000 nM
COc1cc2nccc(Oc3ccc(NC(=O)c4nn(C5CC5)cc4NCCC(F)(F)F)nn3)c2cc1OC [Compound 146] | ≥ 1000 nM
COc1cc2nccc(Oc3ccc(NC(=O)c4nn(CC(C)O)cc4OCC(F)(F)F)cn3)c2cc1OC (stereo not drawn) [Compound 136] | ≥ 1000 nM
COc1cc2nccc(Oc3ccc(NC(=O)c4nn(C5CCOC5)cc4OCC(F)(F)F)cn3)c2cc1OC (stereo not drawn) [Compound 138] | ≥ 1000 nM
COc1cc2nccc(Oc3ccc(NC(=O)c4nn(C5CC5)cc4OCCF)nn3)c2cc1OC [Compound 113] | < 500 nM
CNCCn1cc(OCC(F)(F)F)c(C(=O)Nc2ccc(Oc3ccnc4cc(OC)c(OC)cc34)cc2)n1 [Compound 119] | ≥ 1000 nM
COCCn1cc(OCC(F)(F)F)c(C(=O)Nc2ccc(Oc3ccnc4cc(OC)c(OC)cc34)nc2)n1 [Compound 104] | ≥ 1000 nM
COc1cc2nccc(Oc3ccc(NC(=O)c4nn(CCN)cc4OCC(F)(F)F)nn3)c2cc1OC [Compound 125] | ≥ 1000 nM
COc1cc2nccc(Oc3ccc(NC(=O)c4nn(C5CCN(C)C5)cc4OCC(F)(F)F)cc3F)c2cc1OC (stereo not drawn) [Compound 96] | ≥ 1000 nM
COc1cc2nccc(Oc3ccc(NC(=O)c4nn(C5CCN(C)C5)cc4OCC(F)(F)F)cn3)c2cc1OC (stereo not drawn) [Compound 133] | ≥ 1000 nM
CNCCn1cc(OCC(F)(F)F)c(C(=O)Nc2ccc(Oc3ccnc4cc(OC)c(OC)cc34)c(C)c2)n1 [Compound 156] | ≥ 1000 nM
COc1cc2nccc(Oc3ccc(NC(=O)c4nn(CCOC5CC5)cc4OCC(F)(F)F)cn3)c2cc1OC [Compound 130] | ≥ 1000 nM
COc1cc2nccc(Oc3ccc(NC(=O)c4nn(CCOC5CC5)cc4OCC(F)(F)F)cc3)c2cc1OC [Compound 118] | 500 to 1000 nM
CNCCOc1cn(C2CC2)nc1C(=O)Nc1ccc(Oc2ccnc3cc(OC)c(OC)cc23)nn1 [Compound 160] | ≥ 1000 nM
COc1cc2nccc(Oc3ccc(NC(=O)c4nn(CC(C)C)cc4OCC(F)(F)F)nn3)c2cc1OC [Compound 124] | 500 to 1000 nM
COc1cc2nccc(Oc3ccc(NC(=O)c4nn(C)cc4OCC(F)(F)F)nn3)c2cc1OC [Compound 102] | < 500 nM
COc1cc2nccc(Oc3ccc(NC(=O)c4nn(C5CC5)cc4OCC4CCC4)nn3)c2cc1OC [Compound 149] | ≥ 1000 nM
COc1cc2nccc(Oc3ccc(NC(=O)c4nn(C5CCCC5)cc4OCC(F)(F)F)cn3)c2cc1OC [Compound 131] | ≥ 1000 nM
COCCn1cc(OCC(F)(F)F)c(C(=O)Nc2ccc(Oc3ccnc4cc(OC)c(OC)cc34)nn2)n1 [Compound 126] | ≥ 1000 nM
COc1cc2nccc(Oc3ccc(NC(=O)c4nn(C5CC5)cc4NCC(F)(F)F)nn3)c2cc1OC [Compound 148] | ≥ 1000 nM
COc1cc2nccc(Oc3ccc(NC(=O)c4nn(C5CCOC5)cc4OCC(F)(F)F)nn3)c2cc1OC (stereo not drawn) [Compound 128] | < 500 nM
COc1cc2nccc(Oc3ccc(NC(=O)c4nn(CCOC5CC5)cc4OCC(F)(F)F)cc3F)c2cc1OC [Compound 116] | 500 to 1000 nM
COc1cc2nccc(Oc3ccc(NC(=O)c4nn(C5CC5)cc4OC(C)C)nn3)c2cc1OC [Compound 147] | 500 to 1000 nM
COc1cc2nccc(Oc3ccc(NC(=O)c4nn(CC(C)C)cc4OCC(F)(F)F)cn3)c2cc1OC [Compound 103] | ≥ 1000 nM
COc1cc2nccc(Oc3ccc(NC(=O)c4nn(CCOC5CC5)cc4OCC(F)(F)F)cc3C)c2cc1OC [Compound 117] | < 500 nM

Other lines, results leading:

IC50 | Compound
≥ 1000 nM | CNCCOc1cn(C2CC2)nc1C(=O)Nc1ccc(Oc2ccnc3cc(OC)c(OC)cc23)cn1 [Compound 141]
< 500 nM | COc1cc2nccc(Oc3ccc(NC(=O)c4nn(C5CC5)cc4OCC(F)F)nc3)c2cc1OC [Compound 109]
< 500 nM | COc1cc2nccc(Oc3ccc(NC(=O)c4nn(CC(C)O)cc4OCCF)nc3)c2cc1OC (stereo not drawn) [Compound 152]
< 500 nM | CCn1cc(OC(C)C)c(C(=O)Nc2ccc(Oc3ccnc4cc(OC)c(OC)cc34)cn2)n1 [Compound 6]
500 to 1000 nM | COc1cc2nccc(Oc3ccc(NC(=O)c4nn(CC5COC5)cc4OCC(F)(F)F)cc3C)c2cc1OC [Compound 99]
≥ 1000 nM | COc1cc2nccc(Oc3ccc(NC(=O)c4nn(CC5COC5)cc4OCC(F)(F)F)nn3)c2cc1OC [Compound 123]
≥ 1000 nM | CNCCn1cc(OCC(F)(F)F)c(C(=O)Nc2ccc(Oc3ccnc4cc(OC)c(OC)cc34)nc2)n1 [Compound 137]
< 500 nM | COc1cc2nccc(Oc3ccc(NC(=O)c4nn(CCOC5CC5)cc4OCC(F)(F)F)nc3)c2cc1OC [Compound 153]
< 500 nM | COc1cc2nccc(Oc3ccc(NC(=O)c4nn(C5CC5)cc4NCCC(F)(F)F)nc3)c2cc1OC [Compound 142]
< 500 nM | COCCn1cc(OCC(F)(F)F)c(C(=O)Nc2ccc(Oc3ccnc4cc(OC)c(OC)cc34)cn2)n1 [Compound 10]
≥ 1000 nM | CCCn1cc(OCC2CCOCC2)c(C(=O)Nc2ccc(Oc3ccnc4cc(OC)c(OC)cc34)cn2)n1 [Compound 164]
< 500 nM | CCCn1cc(NCCC(F)(F)F)c(C(=O)Nc2ccc(Oc3ccnc4cc(OC)c(OC)cc34)cn2)n1 [Compound 158]
< 500 nM | COc1cc2nccc(Oc3ccc(NC(=O)c4nn(CC5COC5)cc4OCC(F)(F)F)nc3)c2cc1OC [Compound 92]
≥ 1000 nM | CCCn1cc(OCC(F)(F)F)c(C(=O)Nc2ccc(Oc3ccnc4cc(OC)c(OC)cc34)nc2)n1 [Compound 139]
< 500 nM | COc1cc2nccc(Oc3ccc(NC(=O)c4nn(CC(C)O)cc4OC(C)C)nc3)c2cc1OC (stereo not drawn) [Compound 151]
≥ 1000 nM | COc1cc2nccc(Oc3ccc(NC(=O)c4nn(CC5COC5)cc4OCC(F)(F)F)cn3)c2cc1OC [Compound 134]
≥ 1000 nM | COc1cc2nccc(Oc3ccc(NC(=O)c4nn(C5CC5)cc4OCC4CNC4)nc3)c2cc1OC [Compound 144]
< 500 nM | COCCOc1cn(C2CC2)nc1C(=O)Nc1ccc(Oc2ccnc3cc(OC)c(OC)cc23)cn1 [Compound 107]
< 500 nM | COc1cc2nccc(Oc3ccc(NC(=O)c4nn(C5CC5)cc4OCC4COC4)nc3)c2cc1OC [Compound 143]
≥ 1000 nM | CCCn1cc(OCCNC)c(C(=O)Nc2ccc(Oc3ccnc4cc(OC)c(OC)cc34)cn2)n1 [Compound 140]
≥ 1000 nM | COc1cc2nccc(Oc3ccc(NC(=O)c4nn(CC5COC5)cc4OCC(F)(F)F)cc3F)c2cc1OC [Compound 97]
< 500 nM | CCCn1cc(OCC(F)(F)F)c(C(=O)Nc2ccc(Oc3ccnc4cc(OC)c(OC)cc34)cn2)n1 [Compound 7]
500 to 1000 nM | CNCCn1cc(OCC(F)(F)F)c(C(=O)Nc2ccc(Oc3ccnc4cc(OC)c(OC)cc34)cn2)n1 [Compound 11]
≥ 1000 nM | COc1cc2nccc(Oc3ccc(NC(=O)c4nn(CC5COC5)cc4OCC(F)(F)F)cc3)c2cc1OC [Compound 101]
< 500 nM | CCCn1cc(OCC2COC2)c(C(=O)Nc2ccc(Oc3ccnc4cc(OC)c(OC)cc34)cn2)n1 [Compound 106]
< 500 nM | COc1cc2nccc(Oc3ccc(NC(=O)c4nn(CCN(C)C)cc4OCC(F)(F)F)nc3)c2cc1OC [Compound 9]
< 500 nM | COc1cc2nccc(Oc3ccc(NC(=O)c4nn(C5CC5)cc4OCCF)nc3)c2cc1OC [Compound 110]
500 to 1000 nM | COc1cc2nccc(Oc3ccc(NC(=O)c4nn(CC(C)O)cc4OCC4CCC4)nc3)c2cc1OC (stereo not drawn) [Compound 163]
≥ 1000 nM | CNCCn1cc(OCC(F)(F)F)c(C(=O)Nc2ccc(Oc3ccnc4cc(OC)c(OC)cc34)nn2)n1 [Compound 127]
